Experimental data: patent publication US6407217B1, “Imidazolinone haptens and antigens and enzyme conjugates prepared therefrom” (American Cyanamid Company, priority 1994, dated 2002)

Legend:
Assay type in all cases: binding, mouse
[1] = target: monoclonal antibody 1D2.6; assay: Indirect competitive enzyme immunoassay, monoclonal antibody 1D2.6
Source text: (§1) An indirect enzyme immunoassay is used to screen for the production of anti-imidazolinone anti-bodies in the serum of the immunized mice and in cell fusion cultures. The method used is essentially the same as the method described by Voller, et al (Manual of Clinical Immunology, eds. N. Rose Friedman, H., pp. 506-512, 1976). For the indirect enzyme immunoassays, an antigen is adsorbed onto polystyrene flat bottom wells in 0.1M Na2CO3 buffer pH 9.6. Excess unbound material is washed away with buffer (PBS, containing 0.01M NaH2PO4—Na2HPO4 pH 7.6 with 0.05% TWEEN® 20 (a polyoxyethyene sorbitan monolaurate surpactantor Atlas chemical industries and 0.02% NaN3). A 0.05% gelatin solution prepared in PBS is used to block the sites unoccupied by the antigen to prevent non-specific binding of reagents. Antibody from serum or culture are added into the wells for binding to the bound antigen. The wells are washed and the amount of bound anitbody is determined by adding alkaline phosphatase-conjugated goat anti-mouse IgG (Boehringer) to the wells followed by the addition of a p-nitrophenyl phosphate solution for color development. The color intensity is determined spectrophotometrically and is used to determine the titers.
(§2) The bound antigen and imidazolinone compound compete for the antibody molecules. The wells are then washed and the color is developed as described above. In this assay, the color is inversely proportional to the amount of imidazolinone compound. In practice, standard curves are generated with known amounts of an imidazolinone compound and amounts present in test samples are calculated by interpolation.
(§3) Indirect competitive enzyme immunoassays for several imidazolinone compounds, using various monoclonal antibodies and antigens, are conducted according to the procedure described in Example 9. Antigens G and H are as described in Example 10 and Antigen I is shown below.

[2] = target: monoclonal antibody 3A5.1; assay: Indirect competitive enzyme immunoassay, monoclonal antibody 3A5.1
Source text: as §1, §2, §3

[3] = target: monoclonal antibody 3A2.2; assay: Indirect competitive enzyme immunoassay, monoclonal antibody 3A2.2
Source text: as §1, §2, §3

[4] = target: monoclonal antibody 1A5.5; assay: Indirect competitive enzyme immunoassay, monoclonal antibody 1A5.5; settings: for I50 (half-maximal inhibition): MAb 1A5.5, coating antigen H
Source text: as §1, §2, §3

[5] = target: monoclonal antibody 2C6.5; assay: Indirect competitive enzyme immunoassay, monoclonal antibody 2C6.5
Source text: as §1, §2, §3

[6] = system: monoclonal antibody 3A2.2; assay: Direct competitive enzyme immunoassay with MAb 3A2.2 and alkaline phosphatase enzyme conjugate; settings: mean of triplicate
Source text: The monoclonal antibody 3A2.2 prepared in Example 10 and the enzyme conjugate prepared in Example 12 are used to establish a direct competitive enzyme immunoassay method for the determination of the concentration of imazapyr in samples. A constant amount of the monoclonal antibody 3A2.2 is adsorbed onto polystyrene plate wells through an affinity purified goat anti-mouse immunoglobulin which is previously adsorbed onto the polystyrene plate wells. The wells are washed with buffer (PBS, containing 0.01M NaH2PO4—Na2HPO4 pH 7.6 with 0.05% TWEEN® 20 (a polyoxyethylene sorbitan monolaurate surfactant of Atlas Chemical Industries and 0.02% NaN3) and blocked with a 0.05% gelatin solution prepared in PBS. Standard solutions having concentrations of imazapyr from 0 to 5,000 ng/mL are added to the blocked wells followed by the addition of the aforementioned enzyme conjugate.
After several minutes, the wells are washed and the color is developed by adding BRL alkaline phosphatase substrate amplification kit (commercially available from GIBCO BRL Life Technologies Inc., […], Md.). After several minutes, readings are taken for each well at 490 nm using a microwell reader.
A standard curve plot having the log of imazapyr concentration on the x-axis and the optical density reading at 490 nm (OD 490) on the Y-axis is used to determine unknown concentrations of imazapyr present in soil, water or plant samples from their OD 490 values.
The OD 490 readings for 6 imazapyr standard solutions and a solvent blank are obtained from a direct enzyme immunoassay experiment run in triplicate. The standard curve obtained by plotting the mean OD 490 reading versus the logarithm of the standard imazapyr concentration is used to determine unknown imazapyr concentrations from about 0.5 ng/mL to 500 ng/mL.

Row | Compound | I50 (half-maximal inhibition) ([1]; MAb 1D2.6, coating antigen G) | I50 (half-maximal inhibition) ([1]; MAb 1D2.6, coating antigen I) | I50 (half-maximal inhibition) ([2]; MAb 3A5.1, coating antigen I) | I50 (half-maximal inhibition) ([3]; MAb 3A2.2, coating antigen G) | I50 (half-maximal inhibition) ([3]; MAb 3A2.2, coating antigen I) | I50 (half-maximal inhibition) [4] | I50 (half-maximal inhibition) ([2]; MAb 3A5.1, coating antigen G) | I50 (half-maximal inhibition) ([5]; MAb 2C6.5, coating antigen G) | I50 (half-maximal inhibition) ([5]; MAb 2C6.5, coating antigen I) | affinity compared to the other imidazolinone compounds ([1]; MAb 1D2.6) | affinity compared to the other imidazolinone compounds ([4]; MAb 1A5.5) | OD 490 Reading ([6]; imazapyr 0.05 ng/mL) | OD 490 Reading ([6]; imazapyr 0.50 ng/mL) | OD 490 Reading ([6]; imazapyr 5.0 ng/mL) | OD 490 Reading ([6]; imazapyr 50 ng/mL) | OD 490 Reading ([6]; imazapyr 500 ng/mL) | OD 490 Reading ([6]; imazapyr 5,000 ng/mL)
1 | CC(C)C1(C)N=C(c2nc3ccccc3cc2C(=O)O)NC1=O (stereo not drawn) [Imazaquin, 2-(4-isopropyl-4-methyl-5-oxo-2-imidazolin-2-yl)-3-quinolinecarboxylic acid] | >10,000 ppb (ng/mL) | 2,000 ppb (ng/mL) | 800 ppb (ng/mL) | 5 ppb (ng/mL) | 3 ppb (ng/mL) | >1,000 ppb (ng/mL) |  |  |  |  |  |  |  |  |  |  | 
2 | Cc1cnc(C2=NC(C)(C(C)C)C(=O)N2)c(C(=O)O)c1 (stereo not drawn) [Imazamethapyr, 2-(4-isopropyl-4-methyl-5-oxo-2-imidazolin-2-yl)-5-methylnicotinic acid] | >10,000 ppb (ng/mL) | 250 ppb (ng/mL) | 340 ppb (ng/mL) | 31 ppb (ng/mL) | 27 ppb (ng/mL) | 100 ppb (ng/mL) | >1,000 ppb (ng/mL) | 171 ppb (ng/mL) | 204 ppb (ng/mL) |  |  |  |  |  |  |  | 
3 | CCc1cnc(C2=NC(C)(C(C)C)C(=O)N2)c(C(=O)O)c1 (stereo not drawn) [Imazethapyr, 5-ethyl-2-(4-isopropyl-4-methyl-5-oxo-2-imidazolin-2-yl)nicotinic acid] | >10,000 ppb (ng/mL) | 20 ppb (ng/mL) | 220 ppb (ng/mL) | 34 ppb (ng/mL) | 21 ppb (ng/mL) | 60 ppb (ng/mL) | >1,000 ppb (ng/mL) | 13 ppb (ng/mL) | 15 ppb (ng/mL) | greater affinity | greater affinity |  |  |  |  |  | 
4 | mixture of methyl 6-(4-isopropyl-4-methyl-5-oxo-2-imidazolin-2-yl)-m-toluate and methyl 2-(4-isopropyl-4-methyl-5-oxo-2-imidazolin-2-yl)-p-toluate [Imazamethabenz-methyl] | >10,000 ppb (ng/mL) | 105 ppb (ng/mL) | 90 ppb (ng/mL) | 322 ppb (ng/mL) | 356 ppb (ng/mL) | 500 ppb (ng/mL) | 400 ppb (ng/mL) |  |  |  |  |  |  |  |  |  | 
5 | CC(C)C1(C)N=C(c2ncccc2C(=O)O)NC1=O (stereo not drawn) [Imazapyr, 2-(4-isopropyl-4-methyl-5-oxo-2-imidazolin-2-yl)nicotinic acid] | >10,000 ppb (ng/mL) | >1,000 ppb (ng/mL) | >5,000 ppb (ng/mL) | 290 ppb (ng/mL) | 331 ppb (ng/mL) | 500 ppb (ng/mL) |  |  |  |  |  | 2.671 | 2.507 | 1.893 | 0.801 | 0.474 | 0.446
